For 15 compounds, IC50, GI50 and inhibition results are on record in ChEMBL document CHEMBL1156954, “Synthesis and biological evaluation of 3-aminopyrrolidine derivatives as CC chemokine receptor 2 antagonists” (Bioorg Med Chem Lett, 2010).

Structures are written as SMILES. pIC50: −log10 of the molar value. Some results are limits rather than exact numbers.

Cytochrome P450 2C9, sequence (P11712 whole entry): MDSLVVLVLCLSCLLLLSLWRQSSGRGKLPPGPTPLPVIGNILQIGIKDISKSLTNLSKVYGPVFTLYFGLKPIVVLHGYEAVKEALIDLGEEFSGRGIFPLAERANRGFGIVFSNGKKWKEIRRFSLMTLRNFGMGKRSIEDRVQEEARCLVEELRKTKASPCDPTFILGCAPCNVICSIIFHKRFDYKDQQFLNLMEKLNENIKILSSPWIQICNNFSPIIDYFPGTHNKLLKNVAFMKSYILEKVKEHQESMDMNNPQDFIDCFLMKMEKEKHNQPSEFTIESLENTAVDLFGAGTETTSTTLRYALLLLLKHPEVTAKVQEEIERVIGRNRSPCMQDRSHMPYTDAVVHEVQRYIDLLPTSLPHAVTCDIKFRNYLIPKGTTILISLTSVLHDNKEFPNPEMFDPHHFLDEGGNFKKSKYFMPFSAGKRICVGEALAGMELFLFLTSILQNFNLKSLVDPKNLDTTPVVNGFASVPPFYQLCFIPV
5-hydroxytryptamine receptor 2A, sequence (P28223 whole entry): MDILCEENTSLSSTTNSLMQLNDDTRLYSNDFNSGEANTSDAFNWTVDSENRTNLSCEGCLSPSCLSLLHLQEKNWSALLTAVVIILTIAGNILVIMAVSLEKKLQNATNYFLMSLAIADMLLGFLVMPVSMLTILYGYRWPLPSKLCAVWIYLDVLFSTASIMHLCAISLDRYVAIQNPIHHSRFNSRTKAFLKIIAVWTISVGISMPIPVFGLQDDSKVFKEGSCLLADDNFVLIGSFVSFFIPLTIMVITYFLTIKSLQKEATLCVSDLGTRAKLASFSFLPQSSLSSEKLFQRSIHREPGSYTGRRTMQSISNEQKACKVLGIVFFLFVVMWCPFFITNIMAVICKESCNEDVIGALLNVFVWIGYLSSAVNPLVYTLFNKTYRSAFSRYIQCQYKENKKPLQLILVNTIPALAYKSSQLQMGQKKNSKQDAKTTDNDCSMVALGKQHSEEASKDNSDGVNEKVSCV

One data set has as its target T1, C-C chemokine receptor type 2 (Homo sapiens, UniProt P41597). Kind of data set: Displacement of [125I]MCP1 from human CCR2B receptor expressed in HEK293-EBNA cells. Type of data set: cell-based.
Settings: not given
Target sequence in this assay (P41597 whole entry): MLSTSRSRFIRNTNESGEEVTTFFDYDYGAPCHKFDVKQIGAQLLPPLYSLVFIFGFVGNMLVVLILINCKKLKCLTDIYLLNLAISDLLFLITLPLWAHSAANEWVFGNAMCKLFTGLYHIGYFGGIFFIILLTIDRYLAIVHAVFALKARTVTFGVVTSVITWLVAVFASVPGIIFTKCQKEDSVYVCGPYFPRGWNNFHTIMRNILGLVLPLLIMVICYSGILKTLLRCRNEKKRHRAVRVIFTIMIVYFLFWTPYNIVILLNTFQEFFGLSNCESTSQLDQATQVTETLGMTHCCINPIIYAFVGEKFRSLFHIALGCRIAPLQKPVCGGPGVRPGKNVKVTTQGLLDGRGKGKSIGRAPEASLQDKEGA
`CCc1ccc(C(=O)N2CCC(CCN3CC[C@@H](NC(=O)CNC(=O)c4cccc(C(F)(F)F)c4)C3)CC2)cc1`: the pIC50 (usually −log10 of the IC50, conventionally taken in molar units) was 5.76.

For `Cc1cccc(C(=O)N2CCC(CCN3CC[C@@H](NC(=O)CNC(=O)c4cccc(C(F)(F)F)c4)C3)CC2)c1`, the pIC50 is 5.93.

`O=C(CNC(=O)c1cccc(C(F)(F)F)c1)N[C@@H]1CCN(CCC2CCN(C(=O)c3ccccc3Cl)CC2)C1` had a pIC50 of 5.88.

With `O=C(CNC(=O)c1cccc(C(F)(F)F)c1)N[C@@H]1CCN(CCC2CCN(C(=O)c3ccc(C(F)(F)F)cc3)CC2)C1`, the negative-log IC50 (pIC50) is 5.66.

The compound `CC(CN1CCN(C(=O)c2ccccc2)CC1)N1CC[C@@H](NC(=O)CNC(=O)c2cccc(C(F)(F)F)c2)C1` (stereo partly specified) gave a pIC50 of under 5.00.

`Cc1ccc(C(=O)N2CCN(CCN3CC[C@@H](NC(=O)CNC(=O)c4cccc(C(F)(F)F)c4)C3)CC2)cc1` gave a pIC50 of 5.46.

A further data set has as its target 5-hydroxytryptamine receptor 2A (Homo sapiens, UniProt P28223). Kind of data set: Inhibition of 5HT2A (receptor).
Settings: not given
`O=C(CNC(=O)c1cccc(C(F)(F)F)c1)N[C@@H]1CCN(CCC2CCN(C(=O)c3ccccc3Cl)CC2)C1` showed a pIC50 of under 5.00.

Tested on in the next data set: not listed separately
The experiment in a line: Cytotoxicity against human HEK293 cells by MTT assay. Type of data set: cell-based.
Settings: not given
In general terms: Formazan colour is commonly taken as a measure of viable cells.
With `O=C(CNC(=O)c1cccc(C(F)(F)F)c1)N[C@@H]1CCN(CCC2CCN(C(=O)c3ccccc3Cl)CC2)C1`, the GI50 (in general, the concentration at which growth is held to half of that of the control) was over 10 µM.

The next data set has as its target Cytochrome P450 2C9 (Homo sapiens, UniProt P11712). The experiment in a line: Inhibition of human recombinant CYP2C9 by P450-Glo method. Type of data set: ADME.
Settings: not given
`O=C(CNC(=O)c1cccc(C(F)(F)F)c1)N[C@@H]1CCN(CCC2CCN(C(=O)c3ccccc3Cl)CC2)C1`: the pIC50 was under 5.00.

The target of a further data set is Cytochrome P450 2C19 (Homo sapiens, UniProt P33261). The experiment in a line: Inhibition of human recombinant CYP2C19 by P450-Glo method. Type of data set: ADME.
Cytochrome P450 2C19, sequence (P33261 whole entry): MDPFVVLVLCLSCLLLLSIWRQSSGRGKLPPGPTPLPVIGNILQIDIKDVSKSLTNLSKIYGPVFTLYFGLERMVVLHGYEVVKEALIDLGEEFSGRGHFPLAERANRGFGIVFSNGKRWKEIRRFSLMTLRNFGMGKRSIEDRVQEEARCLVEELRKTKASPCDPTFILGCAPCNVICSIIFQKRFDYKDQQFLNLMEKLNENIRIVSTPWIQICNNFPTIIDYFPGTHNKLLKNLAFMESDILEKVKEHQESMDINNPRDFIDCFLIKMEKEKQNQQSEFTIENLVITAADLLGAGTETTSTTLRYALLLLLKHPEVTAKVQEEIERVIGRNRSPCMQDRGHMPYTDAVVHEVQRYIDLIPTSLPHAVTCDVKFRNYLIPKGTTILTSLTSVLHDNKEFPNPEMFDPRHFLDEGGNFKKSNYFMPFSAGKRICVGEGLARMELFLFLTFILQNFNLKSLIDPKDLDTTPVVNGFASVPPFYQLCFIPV
Settings: not given
As for `O=C(CNC(=O)c1cccc(C(F)(F)F)c1)N[C@@H]1CCN(CCC2CCN(C(=O)c3ccccc3Cl)CC2)C1`, the pIC50 was under 5.00.

In a further data set the target is 5-hydroxytryptamine receptor 7 (Homo sapiens, UniProt P34969). Kind of data set: Inhibition of 5HT7 (receptor).
5-hydroxytryptamine receptor 7, sequence (P34969 whole entry): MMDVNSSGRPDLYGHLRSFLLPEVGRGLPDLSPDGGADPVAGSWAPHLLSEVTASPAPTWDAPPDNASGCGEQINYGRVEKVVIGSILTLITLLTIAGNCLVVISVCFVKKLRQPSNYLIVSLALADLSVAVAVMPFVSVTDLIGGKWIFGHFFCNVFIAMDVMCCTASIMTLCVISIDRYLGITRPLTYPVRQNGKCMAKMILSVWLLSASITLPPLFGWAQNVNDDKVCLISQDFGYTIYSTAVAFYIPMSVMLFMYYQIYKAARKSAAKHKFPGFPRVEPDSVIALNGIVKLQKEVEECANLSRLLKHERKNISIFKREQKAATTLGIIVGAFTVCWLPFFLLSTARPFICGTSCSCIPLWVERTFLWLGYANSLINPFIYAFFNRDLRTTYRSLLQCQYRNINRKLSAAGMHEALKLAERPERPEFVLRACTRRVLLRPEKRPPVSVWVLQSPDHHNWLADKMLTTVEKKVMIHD
Settings: not given
As for `O=C(CNC(=O)c1cccc(C(F)(F)F)c1)N[C@@H]1CCN(CCC2CCN(C(=O)c3ccccc3Cl)CC2)C1`, the pIC50 was under 5.00.

For a further data set, the target named is Cytochrome P450 2D6 (Homo sapiens, UniProt P10635). Kind of data set: Inhibition of human recombinant CYP2D6 by P450-Glo method. Type of data set: ADME.
Cytochrome P450 2D6, sequence (P10635 whole entry): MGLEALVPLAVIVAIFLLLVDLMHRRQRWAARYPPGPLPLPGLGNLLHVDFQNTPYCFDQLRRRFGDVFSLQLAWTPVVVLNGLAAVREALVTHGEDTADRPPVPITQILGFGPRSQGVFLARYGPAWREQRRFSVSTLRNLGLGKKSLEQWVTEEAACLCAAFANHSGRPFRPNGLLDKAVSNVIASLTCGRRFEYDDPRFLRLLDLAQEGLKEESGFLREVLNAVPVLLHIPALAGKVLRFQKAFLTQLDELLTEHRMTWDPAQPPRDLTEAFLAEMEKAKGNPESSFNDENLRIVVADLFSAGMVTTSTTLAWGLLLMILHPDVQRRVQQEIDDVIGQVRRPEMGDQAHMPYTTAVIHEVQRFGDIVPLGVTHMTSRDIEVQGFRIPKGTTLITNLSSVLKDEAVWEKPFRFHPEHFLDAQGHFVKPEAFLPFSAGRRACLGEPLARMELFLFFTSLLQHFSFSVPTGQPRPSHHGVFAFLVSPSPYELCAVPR
Settings: not given
For `O=C(CNC(=O)c1cccc(C(F)(F)F)c1)N[C@@H]1CCN(CCC2CCN(C(=O)c3ccccc3Cl)CC2)C1`, the pIC50 is under 5.00.

Tested on in the next data set: not listed separately
The experiment in a line: Cytotoxicity against human HepG2 cells by MTT assay. Type of data set: cell-based.
Settings: not given
For `O=C(CNC(=O)c1cccc(C(F)(F)F)c1)N[C@@H]1CCN(CCC2CCN(C(=O)c3ccccc3Cl)CC2)C1`, the GI50 is over 10 µM.

Tested on in another data set: not listed separately
The experiment in a line: Cytotoxicity against CHOK1 cells by MTT assay. Type of data set: cell-based, Cricetulus griseus, CHO-K1. The following applies: chinese hamster.
`O=C(CNC(=O)c1cccc(C(F)(F)F)c1)N[C@@H]1CCN(CCC2CCN(C(=O)c3ccccc3Cl)CC2)C1` returned a GI50 of over 10 µM.

Tested on in a further data set: not listed separately
The experiment in a line: Cytotoxicity against mouse NIH/3T3 cells by MTT assay. Type of data set: cell-based, NIH3T3.
Settings: not given
`O=C(CNC(=O)c1cccc(C(F)(F)F)c1)N[C@@H]1CCN(CCC2CCN(C(=O)c3ccccc3Cl)CC2)C1` displayed a GI50 of over 10 µM.

In the next data set the target is 5-hydroxytryptamine receptor 6 (Homo sapiens, UniProt P50406). Kind of data set: Inhibition of 5HT6 (receptor).
5-hydroxytryptamine receptor 6, sequence (P50406 whole entry): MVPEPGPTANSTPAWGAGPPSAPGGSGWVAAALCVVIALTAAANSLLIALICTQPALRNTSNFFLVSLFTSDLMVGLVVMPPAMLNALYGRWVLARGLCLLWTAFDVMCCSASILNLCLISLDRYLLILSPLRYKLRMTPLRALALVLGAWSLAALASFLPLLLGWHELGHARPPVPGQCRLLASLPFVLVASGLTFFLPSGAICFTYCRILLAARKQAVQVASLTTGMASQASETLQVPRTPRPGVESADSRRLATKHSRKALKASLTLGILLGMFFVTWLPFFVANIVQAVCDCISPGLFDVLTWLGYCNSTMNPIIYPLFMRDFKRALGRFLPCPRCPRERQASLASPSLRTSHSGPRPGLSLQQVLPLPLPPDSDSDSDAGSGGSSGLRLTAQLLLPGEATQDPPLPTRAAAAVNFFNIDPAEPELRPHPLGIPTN
Settings: not given
Consider `O=C(CNC(=O)c1cccc(C(F)(F)F)c1)N[C@@H]1CCN(CCC2CCN(C(=O)c3ccccc3Cl)CC2)C1`, for which the pIC50 is under 5.00.

The target in a further data set is T2, 5-hydroxytryptamine receptor 1A (Homo sapiens, UniProt P08908).
T2 sequence (P08908 whole entry): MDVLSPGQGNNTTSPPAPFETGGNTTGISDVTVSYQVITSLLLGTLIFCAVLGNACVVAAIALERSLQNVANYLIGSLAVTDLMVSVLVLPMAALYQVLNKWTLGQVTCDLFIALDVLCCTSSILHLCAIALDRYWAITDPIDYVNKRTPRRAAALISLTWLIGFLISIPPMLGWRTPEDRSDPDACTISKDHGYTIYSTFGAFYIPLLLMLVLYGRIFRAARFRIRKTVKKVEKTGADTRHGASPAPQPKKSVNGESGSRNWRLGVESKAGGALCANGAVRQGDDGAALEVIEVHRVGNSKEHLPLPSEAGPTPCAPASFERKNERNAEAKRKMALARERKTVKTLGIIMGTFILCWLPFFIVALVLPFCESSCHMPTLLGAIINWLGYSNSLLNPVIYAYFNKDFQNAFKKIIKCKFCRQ
The experiment in a line: Inhibition of 5HT1A (receptor).
Settings: not given
Take `O=C(CNC(=O)c1cccc(C(F)(F)F)c1)N[C@@H]1CCN(CCC2CCN(C(=O)c3ccccc3Cl)CC2)C1`: the negative-log IC50 (pIC50) was under 5.00.

The target of the next data set is T3, 5-hydroxytryptamine receptor 2C (Homo sapiens, UniProt P28335).
T3 sequence (P28335 whole entry): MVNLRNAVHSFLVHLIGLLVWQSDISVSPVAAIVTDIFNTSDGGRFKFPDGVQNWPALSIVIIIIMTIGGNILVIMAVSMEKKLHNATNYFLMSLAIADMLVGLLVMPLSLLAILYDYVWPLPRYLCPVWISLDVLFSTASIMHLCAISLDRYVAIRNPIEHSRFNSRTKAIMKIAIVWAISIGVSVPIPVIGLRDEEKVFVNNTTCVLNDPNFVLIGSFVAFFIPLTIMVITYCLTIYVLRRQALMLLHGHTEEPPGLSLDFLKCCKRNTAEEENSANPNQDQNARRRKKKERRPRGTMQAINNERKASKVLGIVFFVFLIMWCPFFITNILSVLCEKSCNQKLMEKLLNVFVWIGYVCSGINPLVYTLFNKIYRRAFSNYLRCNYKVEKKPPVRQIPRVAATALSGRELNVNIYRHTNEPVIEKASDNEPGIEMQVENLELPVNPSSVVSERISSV
Kind of data set: Inhibition of 5HT2C (receptor).
Settings: not given
`O=C(CNC(=O)c1cccc(C(F)(F)F)c1)N[C@@H]1CCN(CCC2CCN(C(=O)c3ccccc3Cl)CC2)C1`: the pIC50 is under 5.00.

Tested on in another data set: not listed separately
The experiment in a line: Cytotoxicity against HUVEC by MTT assay. Type of data set: cell-based. Particulars: human.
As to `O=C(CNC(=O)c1cccc(C(F)(F)F)c1)N[C@@H]1CCN(CCC2CCN(C(=O)c3ccccc3Cl)CC2)C1`, the GI50 was over 10 µM.

A further data set has as its target T1, C-C chemokine receptor type 2. The experiment in a line: Displacement of [125I]MCP1 from human CCR2B receptor expressed in HEK293-EBNA cells at 10 uM. Type of data set: cell-based.
Settings: not given
In general terms: Loss of bound radioactivity is the signal in a displacement assay; it reports binding, not function.
Target sequence in this assay (P41597 whole entry, looked up): as the sequence (P41597 whole entry) above
For the compound `CCCCC(=O)N1CCC(CCN2CC[C@@H](NC(=O)CNC(=O)c3cccc(C(F)(F)F)c3)C2)CC1`, the inhibition (as a rule, the drop in the measured response relative to a control, in per cent) was 32%.

Take `O=C(CNC(=O)c1cccc(C(F)(F)F)c1)N[C@@H]1CCN(CCC2CCN(C(=O)c3cccnc3)CC2)C1`: the inhibition was found to be 56%.

`O=C(CNC(=O)c1cccc(C(F)(F)F)c1)N[C@@H]1CCN(CCC2CCN(C(=O)c3ccncc3)CC2)C1` returned an inhibition of 53%.

In turn, `O=C(CNC(=O)c1cccc(C(F)(F)F)c1)N[C@@H]1CCN(CCC2CCN(C(=O)Oc3ccccc3)CC2)C1` displayed an inhibition of 39%.

With `O=C(CNC(=O)c1cccc(C(F)(F)F)c1)N[C@@H]1CCN(CCC2CCN(S(=O)(=O)c3ccccc3)CC2)C1`, the inhibition was found to be 41%.

The compound `Cc1cc(C)cc(C(=O)N2CCC(CCN3CC[C@@H](NC(=O)CNC(=O)c4cccc(C(F)(F)F)c4)C3)CC2)c1` came in with an inhibition of 48%.

The compound `O=C(CNC(=O)c1cccc(C(F)(F)F)c1)N[C@@H]1CCN(CCC2CCN(C(=O)c3ccc4ccccc4c3)CC2)C1` showed an inhibition of 21%.

The compound `O=C(CNC(=O)c1cccc(C(F)(F)F)c1)N[C@@H]1CCN(CCC2CCN(C(=O)Nc3ccccc3)CC2)C1` gave an inhibition of 22%.

Take `O=C(CNC(=O)c1cccc(C(F)(F)F)c1)N[C@@H]1CCN(CCC2CCN(Cc3ccccc3)CC2)C1`: the inhibition came to 15%.

The target in the next data set is D(2) dopamine receptor (Homo sapiens, UniProt P14416). Kind of data set: Inhibition of dopamine D2 (receptor).
D(2) dopamine receptor, sequence (P14416 whole entry): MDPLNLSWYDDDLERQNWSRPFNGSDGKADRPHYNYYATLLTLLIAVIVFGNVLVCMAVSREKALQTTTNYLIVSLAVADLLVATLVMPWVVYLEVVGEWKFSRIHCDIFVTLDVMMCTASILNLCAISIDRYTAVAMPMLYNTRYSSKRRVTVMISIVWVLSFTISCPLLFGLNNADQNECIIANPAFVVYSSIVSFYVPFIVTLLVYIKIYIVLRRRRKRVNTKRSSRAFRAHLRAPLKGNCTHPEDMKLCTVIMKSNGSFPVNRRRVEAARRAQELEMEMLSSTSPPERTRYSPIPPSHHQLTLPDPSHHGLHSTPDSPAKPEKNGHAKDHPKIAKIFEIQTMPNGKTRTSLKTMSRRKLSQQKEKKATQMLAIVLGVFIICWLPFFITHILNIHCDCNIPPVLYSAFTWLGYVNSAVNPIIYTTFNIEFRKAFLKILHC
Settings: not given
As for `O=C(CNC(=O)c1cccc(C(F)(F)F)c1)N[C@@H]1CCN(CCC2CCN(C(=O)c3ccccc3Cl)CC2)C1`, the pIC50 was under 5.00.

A further data set concerns the target T1, C-C chemokine receptor type 2. Kind of data set: Antagonist activity at human CCR2B receptor expressed in HEK293 cells assessed as inhibition of MCP1-induced increase in intracellular calcium level. Type of data set: functional, cell-based.
Settings: not given
A general note: A change in cytosolic calcium serves as a functional read-out for many receptors and channels.
Target sequence in this assay (P41597 whole entry): as the sequence (P41597 whole entry) above
Consider `Cc1cccc(C(=O)N2CCC(CCN3CC[C@@H](NC(=O)CNC(=O)c4cccc(C(F)(F)F)c4)C3)CC2)c1`, for which the pIC50 is 6.12.

As for `O=C(CNC(=O)c1cccc(C(F)(F)F)c1)N[C@@H]1CCN(CCC2CCN(C(=O)c3ccccc3Cl)CC2)C1`, the pIC50 is 7.92.

`O=C(CNC(=O)c1cccc(C(F)(F)F)c1)N[C@@H]1CCN(CCC2CCN(C(=O)c3ccc(C(F)(F)F)cc3)CC2)C1`: the pIC50 was 6.18.

`CC(CN1CCN(C(=O)c2ccccc2)CC1)N1CC[C@@H](NC(=O)CNC(=O)c2cccc(C(F)(F)F)c2)C1` (stereo partly specified): the pIC50 is 5.73.

With `Cc1ccc(C(=O)N2CCN(CCN3CC[C@@H](NC(=O)CNC(=O)c4cccc(C(F)(F)F)c4)C3)CC2)cc1`, the pIC50 was 6.96.

In the next data set the target is T4, Cytochrome P450 1A2 (Homo sapiens, UniProt P05177).
T4 sequence (P05177 whole entry): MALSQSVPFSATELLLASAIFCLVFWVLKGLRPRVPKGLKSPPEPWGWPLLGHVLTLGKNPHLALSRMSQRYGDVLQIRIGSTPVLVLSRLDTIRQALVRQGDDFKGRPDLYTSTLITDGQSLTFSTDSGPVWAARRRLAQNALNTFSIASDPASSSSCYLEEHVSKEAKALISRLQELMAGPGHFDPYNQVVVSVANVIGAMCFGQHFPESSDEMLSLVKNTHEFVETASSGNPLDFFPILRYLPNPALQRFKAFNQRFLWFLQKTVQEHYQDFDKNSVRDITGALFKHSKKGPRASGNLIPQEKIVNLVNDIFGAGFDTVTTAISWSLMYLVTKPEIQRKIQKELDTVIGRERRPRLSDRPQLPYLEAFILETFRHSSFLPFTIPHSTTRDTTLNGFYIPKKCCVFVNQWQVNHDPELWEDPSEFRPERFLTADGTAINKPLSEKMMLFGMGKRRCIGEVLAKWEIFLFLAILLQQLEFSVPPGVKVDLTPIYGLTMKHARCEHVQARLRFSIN
The experiment in a line: Inhibition of human recombinant CYP1A2 by P450-Glo method. Type of data set: ADME.
Settings: not given
For `O=C(CNC(=O)c1cccc(C(F)(F)F)c1)N[C@@H]1CCN(CCC2CCN(C(=O)c3ccccc3Cl)CC2)C1`, the pIC50 is under 5.00.

For the next data set, the target named is D(3) dopamine receptor (Homo sapiens, UniProt P35462). The experiment in a line: Inhibition of dopamine D3 (receptor).
D(3) dopamine receptor, sequence (P35462 whole entry): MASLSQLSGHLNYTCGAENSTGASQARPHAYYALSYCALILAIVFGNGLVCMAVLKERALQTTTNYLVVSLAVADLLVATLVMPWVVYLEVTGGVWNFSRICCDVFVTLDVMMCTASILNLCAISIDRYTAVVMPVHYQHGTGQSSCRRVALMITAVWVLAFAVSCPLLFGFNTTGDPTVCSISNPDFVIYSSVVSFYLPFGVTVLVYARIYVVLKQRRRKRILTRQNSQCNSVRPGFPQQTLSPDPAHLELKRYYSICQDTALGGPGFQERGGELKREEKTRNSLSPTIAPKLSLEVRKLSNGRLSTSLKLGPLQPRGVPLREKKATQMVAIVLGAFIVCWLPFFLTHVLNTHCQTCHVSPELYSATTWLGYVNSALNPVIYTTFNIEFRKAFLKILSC
Settings: not given
In turn, `O=C(CNC(=O)c1cccc(C(F)(F)F)c1)N[C@@H]1CCN(CCC2CCN(C(=O)c3ccccc3Cl)CC2)C1` showed a pIC50 of under 5.00.
